Reference: ChEMBL document CHEMBL5465560, “Selectivity Literature for EUbOPEN Chemogenomic Library” (2024)
Blank lines part the entries; values can stand above or below the compound they belong to.

What was measured:
[1] = target: Angiopoietin-1 receptor (Homo sapiens) (UniProt Q02763); details: at 10 µM
[2] = target: T1, Tyrosine-protein kinase Tec (Homo sapiens) (UniProt P42680); experiment: Selectivity interaction (KinomeScan (DiscoverX)) EUB0001079a TEC; details: at 1 µM
T1 sequence (whole entry): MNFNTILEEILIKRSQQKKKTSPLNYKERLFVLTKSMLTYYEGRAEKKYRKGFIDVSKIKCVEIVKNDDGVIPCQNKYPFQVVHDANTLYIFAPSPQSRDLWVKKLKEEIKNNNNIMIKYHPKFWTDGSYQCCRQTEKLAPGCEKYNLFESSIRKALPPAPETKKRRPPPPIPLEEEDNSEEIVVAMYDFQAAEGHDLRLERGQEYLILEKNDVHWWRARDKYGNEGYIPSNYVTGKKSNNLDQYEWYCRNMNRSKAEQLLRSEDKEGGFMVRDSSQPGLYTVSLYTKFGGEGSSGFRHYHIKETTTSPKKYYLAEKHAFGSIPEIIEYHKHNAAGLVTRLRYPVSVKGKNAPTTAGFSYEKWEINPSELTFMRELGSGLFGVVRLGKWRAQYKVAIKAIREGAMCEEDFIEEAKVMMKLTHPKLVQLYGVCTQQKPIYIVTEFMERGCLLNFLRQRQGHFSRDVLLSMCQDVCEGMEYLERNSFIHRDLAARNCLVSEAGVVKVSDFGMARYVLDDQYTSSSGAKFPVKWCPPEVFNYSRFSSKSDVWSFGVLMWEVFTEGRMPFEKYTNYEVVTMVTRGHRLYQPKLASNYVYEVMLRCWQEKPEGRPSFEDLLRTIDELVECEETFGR

[3] = target: Death-associated protein kinase 1 (Homo sapiens, UniProt P53355); experiment: Selectivity interaction (KinomeScan (DiscoverX)) EUB0001079a DAPK1; details: at 1 µM
[4] = target: Dual specificity protein kinase CLK3 (Homo sapiens, UniProt P49761); experiment: Selectivity interaction (KinomeScan (DiscoverX)) EUB0000607a CLK3; details: at 10 µM
[5] = target: T2, Serine/threonine-protein kinase TAO3 (Homo sapiens) (UniProt Q9H2K8); experiment: Selectivity interaction (ActivX KiNativ screen (ex vivo kinase selectivity in human PBMCs)) EUB0001619a TAOK3; assay type: cell-based; details: PBMC, at 1 µM
T2 sequence (whole entry): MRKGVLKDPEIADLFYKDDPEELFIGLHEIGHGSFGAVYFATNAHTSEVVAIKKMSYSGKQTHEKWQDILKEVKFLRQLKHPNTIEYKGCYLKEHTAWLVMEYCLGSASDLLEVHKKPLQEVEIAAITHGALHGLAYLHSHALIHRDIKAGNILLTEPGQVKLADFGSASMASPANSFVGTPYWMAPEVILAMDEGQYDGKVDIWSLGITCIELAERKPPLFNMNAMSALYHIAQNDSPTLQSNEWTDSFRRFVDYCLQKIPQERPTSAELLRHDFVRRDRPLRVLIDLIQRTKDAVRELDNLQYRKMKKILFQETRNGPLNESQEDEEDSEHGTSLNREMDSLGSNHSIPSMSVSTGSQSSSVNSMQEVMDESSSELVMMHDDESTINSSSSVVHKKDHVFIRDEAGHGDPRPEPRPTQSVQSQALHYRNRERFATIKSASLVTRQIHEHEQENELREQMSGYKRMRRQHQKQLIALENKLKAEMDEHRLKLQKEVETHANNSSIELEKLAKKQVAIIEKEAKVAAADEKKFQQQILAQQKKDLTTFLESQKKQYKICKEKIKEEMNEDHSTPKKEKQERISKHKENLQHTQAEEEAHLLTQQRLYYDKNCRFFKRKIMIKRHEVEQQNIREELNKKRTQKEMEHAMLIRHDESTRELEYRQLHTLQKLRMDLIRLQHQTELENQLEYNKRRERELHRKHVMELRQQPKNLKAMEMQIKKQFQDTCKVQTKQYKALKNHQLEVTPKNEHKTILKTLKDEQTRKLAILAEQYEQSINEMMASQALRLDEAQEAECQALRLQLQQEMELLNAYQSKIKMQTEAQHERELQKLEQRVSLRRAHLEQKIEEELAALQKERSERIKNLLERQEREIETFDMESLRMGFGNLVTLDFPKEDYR

[6] = target: Cyclin-dependent kinase 3 (Homo sapiens) (UniProt Q00526); experiment: Selectivity interaction (KinomeScan (DiscoverX)) EUB0001619a CDK3; details: at 1 µM
[7] = target: Myosin light chain kinase 2, skeletal/cardiac muscle (Homo sapiens) (UniProt Q9H1R3); details: at 10 µM
[8] = target: Calcium/calmodulin-dependent protein kinase type II subunit beta (Homo sapiens) (UniProt Q13554); experiment: Selectivity interaction (ActivX KiNativ screen (kinase selectivity in THP-1 cell lysates)) EUB0000639a CAMK2B; assay type: subcellular; details: lysate, at 5 µM
[9] = target: Non-receptor tyrosine-protein kinase TYK2 (Homo sapiens, UniProt P29597); experiment: Selectivity interaction (ActivX KiNativ screen (kinase selectivity in THP-1 cell lysates)) EUB0000639a TYK2; assay type: subcellular; details: lysate, at 0.01 µM
[10] = tested on: Phosphatidylinositol 4,5-bisphosphate 3-kinase catalytic subunit alpha isoform (Homo sapiens), P42336 [E545A]; experiment: (§1) Selectivity interaction (KinomeScan (DiscoverX)) EUB0000092b PIK3CA; details: at 10 µM
[11] = tested on: Phosphatidylinositol 4,5-bisphosphate 3-kinase catalytic subunit alpha isoform (Homo sapiens), P42336 [C420R]; experiment: as §1; details: at 10 µM
[12] = tested on: Phosphatidylinositol 4,5-bisphosphate 3-kinase catalytic subunit alpha isoform (Homo sapiens), P42336 [E542K]; experiment: as §1; details: at 10 µM
[13] = tested on: Phosphatidylinositol 4,5-bisphosphate 3-kinase catalytic subunit alpha isoform (Homo sapiens), P42336 [M1043I]; experiment: as §1; details: at 10 µM
[14] = tested on: Phosphatidylinositol 4,5-bisphosphate 3-kinase catalytic subunit alpha isoform (Homo sapiens), P42336 [E545K]; experiment: as §1; details: at 10 µM
[15] = tested on: Phosphatidylinositol 4,5-bisphosphate 3-kinase catalytic subunit alpha isoform (Homo sapiens), P42336 [Q546K]; experiment: as §1; details: at 10 µM
[16] = tested on: Phosphatidylinositol 4,5-bisphosphate 3-kinase catalytic subunit alpha isoform (Homo sapiens), P42336 [H1047L]; experiment: as §1; details: at 10 µM

Sequence of Calcium/calmodulin-dependent protein kinase type II subunit beta (Homo sapiens) (Q13554 whole entry): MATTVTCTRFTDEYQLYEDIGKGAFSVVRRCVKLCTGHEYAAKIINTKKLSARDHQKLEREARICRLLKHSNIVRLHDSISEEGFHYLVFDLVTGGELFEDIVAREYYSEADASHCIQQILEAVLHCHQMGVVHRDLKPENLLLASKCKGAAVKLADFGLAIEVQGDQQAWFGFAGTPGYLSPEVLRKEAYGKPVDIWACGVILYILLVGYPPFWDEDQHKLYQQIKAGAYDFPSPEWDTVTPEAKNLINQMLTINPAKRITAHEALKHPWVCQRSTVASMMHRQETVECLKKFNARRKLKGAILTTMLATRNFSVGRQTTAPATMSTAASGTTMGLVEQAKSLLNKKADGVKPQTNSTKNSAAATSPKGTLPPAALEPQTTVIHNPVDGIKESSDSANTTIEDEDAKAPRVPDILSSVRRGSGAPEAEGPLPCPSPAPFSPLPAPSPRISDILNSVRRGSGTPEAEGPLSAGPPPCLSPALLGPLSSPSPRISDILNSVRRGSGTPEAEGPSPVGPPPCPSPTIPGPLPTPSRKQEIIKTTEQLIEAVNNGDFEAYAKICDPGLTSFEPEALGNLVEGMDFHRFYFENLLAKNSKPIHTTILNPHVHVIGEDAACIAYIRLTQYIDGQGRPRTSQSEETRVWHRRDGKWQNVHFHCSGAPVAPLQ
Sequence of Phosphatidylinositol 4,5-bisphosphate 3-kinase catalytic subunit alpha isoform (Homo sapiens), P42336 [M1043I] (P42336 whole entry M1043I, canonical isoform): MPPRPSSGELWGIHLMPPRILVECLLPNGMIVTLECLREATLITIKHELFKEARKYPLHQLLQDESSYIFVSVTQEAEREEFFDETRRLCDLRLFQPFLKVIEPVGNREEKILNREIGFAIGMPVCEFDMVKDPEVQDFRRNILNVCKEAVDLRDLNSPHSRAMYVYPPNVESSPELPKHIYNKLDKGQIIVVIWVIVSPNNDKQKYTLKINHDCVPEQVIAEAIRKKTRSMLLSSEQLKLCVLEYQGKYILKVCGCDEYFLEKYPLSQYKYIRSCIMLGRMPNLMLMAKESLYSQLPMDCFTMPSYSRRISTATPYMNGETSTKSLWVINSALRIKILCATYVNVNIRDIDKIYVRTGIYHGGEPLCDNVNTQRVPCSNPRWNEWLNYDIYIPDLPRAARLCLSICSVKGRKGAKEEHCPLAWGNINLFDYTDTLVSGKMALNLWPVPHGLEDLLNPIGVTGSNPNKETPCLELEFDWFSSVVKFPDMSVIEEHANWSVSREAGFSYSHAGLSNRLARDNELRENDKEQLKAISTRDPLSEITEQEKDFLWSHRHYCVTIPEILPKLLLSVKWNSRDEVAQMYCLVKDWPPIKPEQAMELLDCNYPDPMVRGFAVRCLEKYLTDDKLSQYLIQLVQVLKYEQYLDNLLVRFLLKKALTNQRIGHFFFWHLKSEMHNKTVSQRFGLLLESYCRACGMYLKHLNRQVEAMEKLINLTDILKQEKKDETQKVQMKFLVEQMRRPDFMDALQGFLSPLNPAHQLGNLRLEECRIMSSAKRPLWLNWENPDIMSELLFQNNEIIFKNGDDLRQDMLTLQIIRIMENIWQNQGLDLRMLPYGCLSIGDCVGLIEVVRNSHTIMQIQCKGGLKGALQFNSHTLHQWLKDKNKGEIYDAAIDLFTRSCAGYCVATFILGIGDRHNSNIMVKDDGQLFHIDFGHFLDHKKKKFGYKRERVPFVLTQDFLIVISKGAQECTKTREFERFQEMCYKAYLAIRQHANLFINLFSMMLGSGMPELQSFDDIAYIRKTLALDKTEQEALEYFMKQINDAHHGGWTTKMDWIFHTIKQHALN
Sequence of Myosin light chain kinase 2, skeletal/cardiac muscle (Homo sapiens) (Q9H1R3 whole entry): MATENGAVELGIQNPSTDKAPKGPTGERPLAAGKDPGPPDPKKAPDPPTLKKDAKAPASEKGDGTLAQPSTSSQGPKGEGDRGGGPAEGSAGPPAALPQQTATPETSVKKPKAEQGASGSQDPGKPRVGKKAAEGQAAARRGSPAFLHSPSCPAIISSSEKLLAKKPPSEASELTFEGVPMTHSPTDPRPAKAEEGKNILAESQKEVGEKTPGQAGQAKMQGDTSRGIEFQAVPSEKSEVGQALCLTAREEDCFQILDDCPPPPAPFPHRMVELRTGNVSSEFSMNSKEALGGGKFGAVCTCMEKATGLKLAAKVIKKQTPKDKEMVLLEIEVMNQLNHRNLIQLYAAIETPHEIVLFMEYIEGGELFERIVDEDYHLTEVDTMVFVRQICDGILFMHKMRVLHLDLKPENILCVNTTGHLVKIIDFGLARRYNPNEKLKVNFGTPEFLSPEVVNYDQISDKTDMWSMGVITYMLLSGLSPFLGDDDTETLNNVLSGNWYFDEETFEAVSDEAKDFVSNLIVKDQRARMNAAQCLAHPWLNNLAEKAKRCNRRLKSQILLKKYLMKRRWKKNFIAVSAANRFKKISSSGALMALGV
Sequence of Phosphatidylinositol 4,5-bisphosphate 3-kinase catalytic subunit alpha isoform (Homo sapiens), P42336 [E545A] (P42336 whole entry E545A, canonical isoform): as the sequence (P42336 whole entry M1043I, canonical isoform) above, with E545A, I1043M counted along it
Sequence of Death-associated protein kinase 1 (P53355 whole entry, looked up): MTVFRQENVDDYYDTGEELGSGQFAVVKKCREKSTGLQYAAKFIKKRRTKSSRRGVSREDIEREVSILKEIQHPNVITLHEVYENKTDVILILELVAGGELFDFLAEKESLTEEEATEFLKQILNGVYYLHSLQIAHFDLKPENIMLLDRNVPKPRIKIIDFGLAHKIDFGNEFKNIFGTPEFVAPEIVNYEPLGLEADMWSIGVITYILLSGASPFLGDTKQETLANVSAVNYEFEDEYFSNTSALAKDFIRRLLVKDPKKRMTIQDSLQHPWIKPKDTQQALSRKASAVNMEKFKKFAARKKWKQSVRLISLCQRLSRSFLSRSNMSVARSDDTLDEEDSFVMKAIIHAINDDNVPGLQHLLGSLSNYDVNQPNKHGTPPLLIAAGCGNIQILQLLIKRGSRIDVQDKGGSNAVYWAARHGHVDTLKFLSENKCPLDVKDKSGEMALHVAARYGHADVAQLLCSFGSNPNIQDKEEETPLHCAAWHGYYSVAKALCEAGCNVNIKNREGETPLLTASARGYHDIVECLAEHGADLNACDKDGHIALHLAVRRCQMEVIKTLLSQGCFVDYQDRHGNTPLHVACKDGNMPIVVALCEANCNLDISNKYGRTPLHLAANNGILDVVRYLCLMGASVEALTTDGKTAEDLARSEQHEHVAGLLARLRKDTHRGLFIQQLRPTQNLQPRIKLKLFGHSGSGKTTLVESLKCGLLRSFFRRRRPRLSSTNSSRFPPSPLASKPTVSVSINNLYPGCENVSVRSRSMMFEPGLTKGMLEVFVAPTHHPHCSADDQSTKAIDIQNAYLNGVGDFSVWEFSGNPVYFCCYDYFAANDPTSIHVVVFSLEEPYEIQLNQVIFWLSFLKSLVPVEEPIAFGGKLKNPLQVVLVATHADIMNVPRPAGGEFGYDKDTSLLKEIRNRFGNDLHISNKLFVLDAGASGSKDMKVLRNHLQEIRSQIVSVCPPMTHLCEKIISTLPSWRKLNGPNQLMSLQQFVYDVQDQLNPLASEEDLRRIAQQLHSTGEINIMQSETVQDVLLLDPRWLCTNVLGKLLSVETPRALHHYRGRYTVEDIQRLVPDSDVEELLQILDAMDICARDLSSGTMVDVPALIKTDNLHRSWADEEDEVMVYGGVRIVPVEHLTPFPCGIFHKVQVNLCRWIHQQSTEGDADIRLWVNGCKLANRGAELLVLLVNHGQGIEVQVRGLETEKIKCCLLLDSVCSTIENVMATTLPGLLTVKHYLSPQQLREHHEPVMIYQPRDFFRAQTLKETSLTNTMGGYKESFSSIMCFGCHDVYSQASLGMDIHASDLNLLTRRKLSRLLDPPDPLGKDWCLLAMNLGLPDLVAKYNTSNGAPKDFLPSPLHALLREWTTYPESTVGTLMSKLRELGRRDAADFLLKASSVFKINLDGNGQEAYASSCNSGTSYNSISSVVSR

- % of control [1]: 100%
Structure (SMILES): CCN(CC)CCCCNc1ncc2cc(-c3cc(OC)cc(OC)c3)c(NC(=O)NC(C)(C)C)nc2n1

Structure (SMILES): Nc1cnc(N2CCc3cc(S(=O)(=O)Nc4c(F)cc(Cl)cc4F)cc(N4CCCC4=O)c32)nc1 [TP-020n]
- % of control [2]: 99%
- % of control [3]: 100%

Structure (SMILES): CNC(=O)Nc1ccc(-c2nc(N3CC4CCC(C3)O4)c3cnn(C4CCC5(CC4)OCCO5)c3n2)cc1
- % of control [4]: 31%

Structure (SMILES): N#Cc1cccc(-c2c[nH]c3ncnc(N4CCOCC4)c23)c1
- % of inhibition [5]: 6%
- % of control [6]: 93%

Structure (SMILES): Cc1cc([C@@H](C)Nc2ccccc2C(=O)O)c2nc(N3CCOCC3)cc(=O)n2c1 [AZD-6482]
- % of control [7]: 100%

- % of inhibition [8]: 19.6%
- % of inhibition [9]: 18.9%
Structure (SMILES): CC[C@@H]1[C@H](F)C(=O)N[C@@H]1COc1nccc2cc(C(N)=O)c(OC)cc12 [ZIMLOVISERTIB]

Structure (SMILES): CCC(=O)N1CCN(c2ccc(-n3c(=O)ccc4cnc5ccc(-c6cnc7ccccc7c6)cc5c43)cc2C(F)(F)F)CC1
- % of control [10]: 1%
- % of control [11]: 0.7%
- % of control [12]: 1%
- % of control [13]: 8.6%
- % of control [14]: 0.6%
- % of control [15]: 6.8%
- % of control [16]: 2.6%
